Assay results from ChEMBL document CHEMBL1201862, “PubChem BioAssay data set” (2004).
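Grown in 96-well plates, cells were treated for 48 hours with each compound at five concentrations. Insufficient inhibition: endpoint recorded as highest concentration tested. Abbreviation: GI50, concentration required for 50% inhibition of growth.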 The source made the active and inactive calls. Rule as the data show it: active = GI50 up to about 1.1 µM and inactive = higher.

Assays:
Experiment in all cases: NCI tumour cell line growth inhibition, 48 h
[1] = tested on: HCT-15
[2] = tested on: SF-295
[3] = tested on: HCC 2998
[4] = tested on: SN12C
[5] = tested on: NCI-H522
[6] = tested on: MDA-N
[7] = tested on: OVCAR-3
[8] = tested on: HCT-116
[9] = tested on: MCF7
[10] = tested on: SF-539
[11] = tested on: NCI-H226
[12] = tested on: EKVX
[13] = tested on: HL-60
[14] = tested on: MOLT-4
[15] = tested on: UACC-257
[16] = tested on: NCI-H460
[17] = tested on: OVCAR-8
[18] = tested on: Malme-3M
[19] = tested on: Hs-578T
[20] = tested on: NCI-H23

Compound | GI50 [1] | GI50 [2] | GI50 [3] | GI50 [4] | GI50 [5] | GI50 [6] | GI50 [7] | GI50 [8] | GI50 [9] | GI50 [10] | GI50 [11] | GI50 [12] | GI50 [13] | GI50 [14] | GI50 [15] | GI50 [16] | GI50 [17] | GI50 [18] | GI50 [19] | GI50 [20]
CCCCCC1=CC(=O)C1(Cl)Cl | 12.6 µM | 18.9 µM (inactive) | 14.2 µM (inactive) | 20.3 µM (inactive) | 5.24 µM (inactive) | 10.5 µM (inactive) | 8.69 µM (inactive) | 11.9 µM (inactive) | 8.11 µM (inactive) | 12.4 µM (inactive) | 15.3 µM (inactive) | 20.1 µM (inactive) | 1.83 µM (inactive) | 3.67 µM (inactive) | 12.2 µM (inactive) | 19.6 µM (inactive) | 10.6 µM (inactive) | 9.55 µM (inactive) | 19 µM (inactive) | 14.3 µM (inactive)
COc1cccc(/C=N/[N+](C)(C)C)c1O | > 10 µM | > 10 µM (inactive) | > 10 µM (inactive) | > 10 µM (inactive) | > 10 µM (inactive) | > 10 µM (inactive) | > 10 µM (inactive) | > 10 µM (inactive) | > 10 µM (inactive) | > 10 µM (inactive) | > 10 µM (inactive) | > 10 µM (inactive) | > 10 µM (inactive) | > 10 µM (inactive) | > 10 µM (inactive) | > 10 µM (inactive) | > 10 µM (inactive) | > 10 µM (inactive) | > 10 µM (inactive) | 2.22 µM (inactive)
O=[As](O)(O)c1ccc(Cc2ccc([As](=O)(O)O)cc2)cc1 | 1.17 µM | 2.78 µM (inactive) | 1.91 µM (inactive) | 0.64 µM (active) | 0.419 µM (active) | 0.421 µM (active) | 0.839 µM (active) | 0.895 µM (active) | 0.284 µM (active) | 0.193 µM (active) | 3.78 µM (inactive) | 1.13 µM (inactive) | 1.09 µM (active) | 0.457 µM (active) | 0.499 µM (active) | 0.91 µM (active) | 0.358 µM (active) | 1.2 µM (inactive) | 1.33 µM (inactive) | 0.773 µM (active)
O=C(O)c1cc2ccccc2oc1=O [COUMARIN-3-CARBOXYLIC ACID] | > 100 µM | > 100 µM (inactive) | > 100 µM (inactive) | > 100 µM (inactive) | > 100 µM (inactive) | > 100 µM (inactive) | > 100 µM (inactive) | > 100 µM (inactive) | > 100 µM (inactive) | > 100 µM (inactive) | > 100 µM (inactive) | > 100 µM (inactive) | > 100 µM (inactive) | > 100 µM (inactive) | > 100 µM (inactive) | > 100 µM (inactive) | > 100 µM (inactive) | > 100 µM (inactive) | > 100 µM (inactive) | > 100 µM (inactive)
Cc1c(O)ccc2c(O)c(NC(=O)c3ccc4c(c3)CCC(C)(C)O4)c(=O)oc12 [CYCLONOVOBIOCIC ACID] | > 100 µM | > 100 µM (inactive) | > 100 µM (inactive) | > 100 µM (inactive) | > 100 µM (inactive) | > 100 µM (inactive) | > 100 µM (inactive) | > 100 µM (inactive) | > 100 µM (inactive) | > 100 µM (inactive) | > 100 µM (inactive) | > 100 µM (inactive) | > 100 µM (inactive) | > 100 µM (inactive) | > 100 µM (inactive) | > 100 µM (inactive) | > 100 µM (inactive) | > 100 µM (inactive) | > 100 µM (inactive) | > 100 µM (inactive)
COc1ccc2c(c1)c(CC(=O)O)c(C)n2C(=O)c1ccc(Cl)cc1 | > 100 µM | > 100 µM (inactive) | 35.6 µM (inactive) | > 100 µM (inactive) | 77.1 µM (inactive) | > 100 µM (inactive) | 56.6 µM (inactive) | > 100 µM (inactive) | 87.7 µM (inactive) | 98.2 µM (inactive) | 98.4 µM (inactive) | > 100 µM (inactive) | 44.3 µM (inactive) | > 100 µM (inactive) | > 100 µM (inactive) | 39.9 µM (inactive) | 77.6 µM (inactive) | 68.7 µM (inactive) | > 100 µM (inactive) | 57 µM (inactive)
COc1cc(-c2[nH]ccc2Cl)oc1C1=C2N=C3C=C2C(C(C)C)C1CCCCCCCC3 (stereo not given) | 0.678 µM | 1.15 µM (inactive) | 0.341 µM (active) | 0.94 µM (active) | 0.407 µM (active) | 0.466 µM (active) | 0.61 µM (active) | 0.307 µM (active) | 0.603 µM (active) | 0.869 µM (active) | 1.06 µM (active) | 0.944 µM (active) | 0.299 µM (active) | 0.433 µM (active) | 1.29 µM (inactive) | 0.319 µM (active) | 0.805 µM (active) | 1.09 µM (active) | 0.253 µM (active) | 0.738 µM (active)
O=C1C(=C(C(=O)c2ccccc2)C(=O)c2ccccc2)OC(c2ccccc2)=C1C(=O)c1ccccc1 | 3.36 µM | 4.79 µM (inactive) | 9.77 µM (inactive) | 3.29 µM (inactive) | 1.22 µM (inactive) | 6.47 µM (inactive) | 5.86 µM (inactive) | 4.44 µM (inactive) | 1.85 µM (inactive) | 5.78 µM (inactive) | 3.74 µM (inactive) | 8.28 µM (inactive) | 6.84 µM (inactive) | 1.98 µM (inactive) | 17.1 µM (inactive) | 3.02 µM (inactive) | 4.15 µM (inactive) | 12.6 µM (inactive) | 11.5 µM (inactive) | 6.1 µM (inactive)
Cc1cc2c(cc1C)C(=O)C1(C2)Cc2cc3c(cc2C1=O)CCC3 (stereo not given) | > 100 µM | > 100 µM (inactive) | > 100 µM (inactive) | > 100 µM (inactive) | > 100 µM (inactive) | > 100 µM (inactive) | > 100 µM (inactive) | > 100 µM (inactive) | > 100 µM (inactive) | 4.95 µM (inactive) | > 100 µM (inactive) | > 100 µM (inactive) | > 100 µM (inactive) | > 100 µM (inactive) | > 100 µM (inactive) | > 100 µM (inactive) | > 100 µM (inactive) | > 100 µM (inactive) | > 100 µM (inactive) | > 100 µM (inactive)
COC(=O)/C(C#N)=C(\Nc1ccccc1)N1CCOCC1 | > 100 µM | > 100 µM (inactive) | > 100 µM (inactive) | > 100 µM (inactive) | > 100 µM (inactive) | > 100 µM (inactive) | > 100 µM (inactive) | > 100 µM (inactive) | > 100 µM (inactive) | > 100 µM (inactive) | > 100 µM (inactive) | > 100 µM (inactive) | > 100 µM (inactive) | > 100 µM (inactive) | > 100 µM (inactive) | > 100 µM (inactive) | > 100 µM (inactive) | > 100 µM (inactive) | > 100 µM (inactive) | > 100 µM (inactive)
CC1CC(C)C2=NOS3=C2C1=NO3 (stereo not given) | > 100 µM | > 100 µM (inactive) | > 100 µM (inactive) | > 100 µM (inactive) | > 100 µM (inactive) | > 100 µM (inactive) | > 100 µM (inactive) | > 100 µM (inactive) | 82.8 µM (inactive) | > 100 µM (inactive) | > 100 µM (inactive) | 40 µM (inactive) | > 100 µM (inactive) | 89.9 µM (inactive) | > 100 µM (inactive) | > 100 µM (inactive) | > 100 µM (inactive) | 89.7 µM (inactive) | > 100 µM (inactive) | > 100 µM (inactive)
COc1cc([C@H]2c3cc4c(cc3O[C@@]3(O)COC(=O)[C@@H]23)OCO4)cc(OC)c1OC | > 100 µM | > 100 µM (inactive) | > 100 µM (inactive) | > 100 µM (inactive) | > 100 µM (inactive) | > 100 µM (inactive) | > 100 µM (inactive) | > 100 µM (inactive) | > 100 µM (inactive) | > 100 µM (inactive) | > 100 µM (inactive) | > 100 µM (inactive) | > 100 µM (inactive) | > 100 µM (inactive) | > 100 µM (inactive) | > 100 µM (inactive) | > 100 µM (inactive) | > 100 µM (inactive) | > 100 µM (inactive) | > 10 µM (inactive)
CCOC(=O)c1cccc(NC(=O)CCl)c1 | 2.75 µM | 12.3 µM (inactive) | 2.19 µM (inactive) | 2.01 µM (inactive) | 1.68 µM (inactive) | 3.92 µM (inactive) | 1.86 µM (inactive) | 2.8 µM (inactive) | 2.26 µM (inactive) | 2.34 µM (inactive) | 6.55 µM (inactive) | 3.18 µM (inactive) | 3.94 µM (inactive) | 5.2 µM (inactive) | 5.09 µM (inactive) | 1.19 µM (inactive) | 3.55 µM (inactive) | 6.22 µM (inactive) | 2.93 µM (inactive) | 3.22 µM (inactive)
COC1CC(C)([N+](=O)[O-])C(O)C(C)O1 (stereo not given) | > 100 µM | > 100 µM (inactive) | > 100 µM (inactive) | > 100 µM (inactive) | > 100 µM (inactive) | > 100 µM (inactive) | > 100 µM (inactive) | > 100 µM (inactive) | > 100 µM (inactive) | > 100 µM (inactive) | > 100 µM (inactive) | > 100 µM (inactive) | > 100 µM (inactive) | > 100 µM (inactive) | > 100 µM (inactive) | > 100 µM (inactive) | > 100 µM (inactive) | > 100 µM (inactive) | > 100 µM (inactive) | > 100 µM (inactive)
